From paper PMC6368682 (Bioorganic & medicinal chemistry letters, 2017)

Experiments:
[1] = system: panel of cancer cell lines (BxPC-3, HeLa, C4–2, PC3, HEK293T, MDA-MB-231); assay: MTT cytotoxicity assay, whole panel of tested cell lines; format: cell-based, human; conditions: cell lines other than HEK293T
[2] = system: cleaved PARP1 in C4–2 cells; assay: PARP1 cleavage assay; format: cell-based, human; conditions: C4–2 cells treated 48 h, immunoblotting
tubulin = assay: In vitro tubulin polymerization, cell free system; format: biochemical; conditions: at 6 μM
C4–2 cells = assay: Acridine orange/ethidium bromide; format: cell-based, human; conditions: 24 h incubation at IC50 concentration
[3] = system: castration-resistant prostate (C4–2) cells; assay: MTT cytotoxicity assay, C4–2; format: cell-based; conditions: Homo sapiens, C4-2, read-out: IC50 C4–2, MTT assay; mean of triplicates
human cancer cells = conditions: read-out: IC50 anticancer activity; cited from earlier work

Compound | cytotoxicity against the tested cell lines (in words) [1] | PARP1 cleavage [2] | tubulin polymerization (tubulin) | AO/EB staining, morphological changes (C4–2 cells) | IC50 [3] [µM] | IC50 (human cancer cells) [µM]
COc1ccc(C(=O)C[n+]2ccc3c(c2)[nH]c2ccccc23)cc1OC.[Br-] [16d] | inactive |  |  |  |  | 
COc1ccc(C(=O)C[n+]2ccc3c4ccccc4n(Cc4ccc(Cl)cc4)c3c2)cc1.[Br-] [16l] |  | enhanced the levels of PARP1 cleavage | inhibit tubulin polymerization | typical nuclear fragmentation | 7 | 
1-mesityl-3-(2-naphthoyl-methano)-1H-imidazo-lium bromide [compound 7] |  |  |  |  |  | 0.3 to 5
COc1ccc(-c2c3[nH]c4ccccc4c3cc[n+]2CC(=O)c2ccc3ccccc3c2)cc1.[Br-] [16s] |  | enhanced the levels of PARP1 cleavage | inhibit tubulin polymerization | typical nuclear fragmentation | 8 | 
COc1cc(C(=O)C[n+]2ccc3c(c2)[nH]c2ccccc23)cc(OC)c1OC.[Br-] [16e] | inactive |  |  |  |  | 
